On the set-up of data set [1]: method as in PMID 9598455. The following applies: cited from earlier work.
Data set [2] can be described thus: Liver tissue distribution pharmacokinetics after single intravenous or intragastric dose. The format is in vivo, male ICR mice. The following applies: for Kp: liver/plasma, read-out: AUCinf ratio (liver/plasma); for half-life: read-out: t1/2 elimination (converted). How it is done: PK studies were performed using both intravenous (IV) and intragastric (IG) administration. For each time point to be acquired, three male ICR mice per time-point, aged seven weeks, were dosed at either PQ or TQ at 5 mg/kg (IV) or 20 mg/kg (IG). Drug vehicle for IV studies was 0.9% saline solution, and the formulated drugs were administered in a volume of 100 μL/20 g of body weight. For IG dosing, the drug vehicle was 0.5% HECT, administered at 100 μL/20 g. At each time point, plasma and liver samples were collected. Whole blood was collected by cardiac puncture. […] Following the separation of appropriate aliquots, plasma was obtained from the whole blood via centrifugation. All liquid and tissue samples were immediately preserved on dry ice and lately stored at -80°C until analytical work was performed.
Blank liver homogenate was prepared by adding 5 mL of water for each gram of liver, then the mixture was homogenized using an ultra-sonication probe (VCX 750, Sonics & Materials, Inc., Newtown, CT). […] The serial dilutions for analysis also included the preparation of 4–5 QC samples at a low range point and a high range point (generally 10 ng/mL and 100 ng/mL, respectively). Once the standard curve dilutions were prepared, a 100 μL aliquot was removed and extracted with 200 μL acetonitrile. The extracted samples were centrifuged at 10,000 rpm for 10 min and the supernatant was removed for analysis by LC-MS/MS. Sample drug concentrations were first interpolated from the standard curve, then multiplied by a factor of 6 to account for the drug levels present in the liver prior to dilution with water for homogenization.
Chromatography was performed using a Surveyor pump (Thermo Scientific, Waltham, MA) with Waters XTerra MS C18 50 mm × 2.1 mm id, 3.5 μm particle size columns (Waters Corp., Milford, MA). Mobile phase consisted of a water/0.1% formic acid (Solvent A)/acetonitrile/0.1% formic acid (Solvent B) gradient. […] Flow rate was 300 μL/min. Samples were injected using an HTC PAL autosampler (LEAP Technologies, Carrboro, NC). Tandem mass spectrometry was performed using a TSQ Quantum AM (Thermo Scientific).
Drug concentrations were generated for each sample taken from animals dosed with both test drugs. A measured plasma and liver drug concentration vs. time curve was produced, in graphic and tabular form, for each subject on both linear/linear and log/linear scales, for the parent compound. Mean plasma drug concentration vs. time curves were also prepared separately. For the determination of initial approach to PK parameters of TQ and PQ in plasma and liver tissues after systemic application, a non-compartmental analysis was performed using Phoenix (version 6.1; Pharsight Corp., Mountain View, CA). Maximum plasma and liver concentration (Cmax), and time to maximum concentration (tmax) of TQ and PQ were obtained from the plasma and liver drug concentration-time curves. The elimination half-life (t1/2) was calculated from In2/kel, which is the elimination rate constant calculated from the log concentration-time plot. The area under the curve (AUC) and the area under the first moment curve (AUMC) were determined by the linear trapezoidal rule with extrapolation to infinity based on the concentration of the last time point divided by the terminal rate constant. Mean clearance rate (CL) was determined by dividing the dose by the AUCinf for intravenous injection for plasma samples. Absolute bioavailability was calculated by taking the dose-corrected area under the curve (AUC) from non-intravenous dosing divided by the AUC derived from intravenous dosing. Mean residence time (MRT) was determined by dividing the area under the first moment curve (AUMC) by AUC. The volume of the central compartment (Vz) and volume of the tissue compartment (Vz/F) were calculated as the product of CL and MRT.

Details of data set [3]: method as in PMID 15378438, PMID 10479159. The following applies: cited from earlier work.
Setting [4] is: male, ICR, mouse, po, intragastric 20 mg/kg, liver.
The mark [5] stands for this setting: male, ICR, mouse, intravenous 5 mg/kg, liver.

Where two headings read alike, the source gives them in different places.

Consider `COc1cc(NC(C)CCCN)c2ncccc2c1` (stereo not drawn) [Primaquine, primaquine], for which the “dose excreted as unchanged drug in the urine” value in data set [1] is on record as “less than 1%”.
For `COc1cc(C)c2c(Oc3cccc(C(F)(F)F)c3)c(OC)cc(NC(C)CCCN)c2n1` (stereo not drawn) [Tafenoquine, tafenoquine], the Cmax (as a rule, the highest concentration seen after dosing) in data set [2] (ICR, mouse, intravenous 5 mg/kg, liver, male mice (head: μg/mL or g), read-out: Cmax) stood at 44800 ± 30000 ng/g; in data set [2] (intragastric 20 mg/kg, liver), 56.90 ± 26.09 µg/mL; in data set [2] (male, ICR, mouse, single oral dose 20 mg/kg, liver, read-out: Cmax), 56900 ng/g. The “AUCinf ratio (liver/plasma)” value in data set [2] (intragastric 20 mg/kg) was determined as 48.91 ± 22.67; in data set [2] (intravenous 5 mg/kg, 5 mg/kg), 87.24 ± 44.29. Also, the AUClast in data set [2] (intravenous 5 mg/kg, liver (μg · h/mL or g)) stood at 2493.82 ± 1361.10 µg·h/g. For the same molecule, the AUCinfininty in data set [2] (intravenous 5 mg/kg, liver (μg · h/mL or g), 5 mg/kg) was determined as 2544.96 ± 1348.03 µg·h/g; in data set [2] (intravenous 5 mg/kg, liver (μg · h/mL or g), listed as TQ, 5 mg/kg), 2544.96 µg·h/g. Further, the Kp in data set [2] (male, ICR, mouse, po, intragastric 20 mg/kg) is 48.9; in data set [2] (male, ICR, mouse, intravenous 5 mg/kg) it was 87.2. In addition, the figures for the MRT in data set [2] (setting [4]) and in data set [2] (setting [5]) were 88.7 ± 13 h and 66.1 ± 19.2 h, respectively. Besides, the time to peak (Tmax) (in general, the time from dosing to the highest level) in data set [2] (setting [4]) was 1.17 ± 0.76 h; in data set [2] (setting [5]), 3.69 ± 2.29 h. The figures for the half-life in data set [2] (setting [4]), in data set [2] (setting [5]) and in data set [3] were 75.5 ± 12.1 h, 70 ± 4.35 h and “approximately 14 days”, respectively. Besides, the “Cmax of orally dosed TQ, fold higher than PQ in liver tissue” value in data set [2] (oral, liver) was roughly 7 fold. Moreover, the “elimination half-life of oral TQ, fold longer than oral PQ in the liver” value in data set [2] (oral, liver) is listed as 17.6 fold. Further, the AUCinf in data set [2] (single oral dose 20 mg/kg, liver) came out at 5391.86 µg·h/g.

The record behind these values is PMC3989846 (Malaria Journal, 2014).
